According to ChEMBL document CHEMBL1201862, “PubChem BioAssay data set” (2004):
Active and inactive are the calls of the source.

Experiments:
Type in all cases: functional
[1] = target: Protein kinase C iota type (Homo sapiens, UniProt P41743);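 further: measured within a kinome-wide kinase panel, PRKCI as panel member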
[2] = target: Insulin-like growth factor 1 receptor (Homo sapiens, UniProt P08069); test: Navigating the Kinome. Panel member name: IGF1R
[3] = target: Casein kinase II subunit alpha (Homo sapiens, UniProt P68400)
[4] = target: Cyclin-dependent kinase 1 (Homo sapiens, UniProt P06493);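 further: Kinome-wide panel profiling, with the target listed as panel member CDC2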
[5] = target: Tyrosine-protein kinase receptor UFO (Homo sapiens, UniProt P30530)
LIM domain kinase 1 = LIM domain kinase 1 (Homo sapiens, UniProt P53667); test: Navigating the Kinome. Panel member name: LIMK1
[6] = target: MAP kinase-interacting serine/threonine-protein kinase 2 (Homo sapiens, UniProt Q9HBH9)
Focal adhesion kinase 1 = Focal adhesion kinase 1 (Homo sapiens, UniProt Q05397);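 further: measured as one member of a kinome panel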
[7] = target: Tyrosine-protein kinase Lyn (Homo sapiens, UniProt P07948);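 further: lyn as one member of a kinase panel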
[8] = target: Testis-specific serine/threonine-protein kinase 2 (Homo sapiens, UniProt Q96PF2);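 further: part of the Navigating the Kinome panel, target entry STK22B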
[9] = target: Protein kinase C gamma type (Homo sapiens, UniProt P05129)
[10] = target: Cyclin-dependent kinase 5 (Homo sapiens, UniProt Q00535);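 further: CDK5 measured as one member of a kinase profiling panel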
[11] = target: Serine/threonine-protein kinase Chk1 (Homo sapiens, UniProt O14757);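 further: measured as one member of a kinome-wide kinase profiling panel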
[12] = target: cGMP-dependent protein kinase 1 (Homo sapiens, UniProt Q13976);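 further: value from a kinome panel screen with PRKG1 as the panel member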
[13] = target: 3-phosphoinositide-dependent protein kinase 1 (Homo sapiens, UniProt O15530);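 further: value comes from the Navigating the Kinome panel, PDPK1 member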
[14] = target: Tyrosine-protein kinase Srms (Homo sapiens, UniProt Q9H3Y6);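 further: SRMS measured as one member of a kinome-wide kinase profiling panel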
[15] = target: Casein kinase I isoform alpha (Homo sapiens, UniProt P48729)
[16] = target: Serine/threonine-protein kinase D2 (Homo sapiens, UniProt Q9BZL6);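 further: measured against PRKD2 as one member of a kinome-wide kinase profiling panel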
[17] = target: Serine/threonine-protein kinase 3 (Homo sapiens, UniProt Q13188);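 further: measured as one member of a kinome-wide kinase panel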
[18] = target: Dual specificity tyrosine-phosphorylation-regulated kinase 1A (Homo sapiens, UniProt Q13627);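 further: measured against DYRK1A as one member of a broad kinome profiling panel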
[19] = target: Glycogen synthase kinase-3 alpha (Homo sapiens, UniProt P49840);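 further: GSK3A result taken from a broad kinome-wide kinase panel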
[20] = target: Proto-oncogene tyrosine-protein kinase Src (Homo sapiens, UniProt P12931);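 further: SRC entry within a kinome-wide kinase profiling panel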
[21] = target: Hepatocyte growth factor receptor (Homo sapiens, UniProt P08581);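 further: kinase panel profiling across the kinome, with MET as the panel member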
[22] = target: STE20-like serine/threonine-protein kinase (Homo sapiens, UniProt Q9H2G2)
[23] = target: Vascular endothelial growth factor receptor 1 (Homo sapiens, UniProt P17948);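 further: measured within a kinome-wide profiling panel, FLT1 as the panel member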
Sequence of Vascular endothelial growth factor receptor 1 (P17948 whole entry): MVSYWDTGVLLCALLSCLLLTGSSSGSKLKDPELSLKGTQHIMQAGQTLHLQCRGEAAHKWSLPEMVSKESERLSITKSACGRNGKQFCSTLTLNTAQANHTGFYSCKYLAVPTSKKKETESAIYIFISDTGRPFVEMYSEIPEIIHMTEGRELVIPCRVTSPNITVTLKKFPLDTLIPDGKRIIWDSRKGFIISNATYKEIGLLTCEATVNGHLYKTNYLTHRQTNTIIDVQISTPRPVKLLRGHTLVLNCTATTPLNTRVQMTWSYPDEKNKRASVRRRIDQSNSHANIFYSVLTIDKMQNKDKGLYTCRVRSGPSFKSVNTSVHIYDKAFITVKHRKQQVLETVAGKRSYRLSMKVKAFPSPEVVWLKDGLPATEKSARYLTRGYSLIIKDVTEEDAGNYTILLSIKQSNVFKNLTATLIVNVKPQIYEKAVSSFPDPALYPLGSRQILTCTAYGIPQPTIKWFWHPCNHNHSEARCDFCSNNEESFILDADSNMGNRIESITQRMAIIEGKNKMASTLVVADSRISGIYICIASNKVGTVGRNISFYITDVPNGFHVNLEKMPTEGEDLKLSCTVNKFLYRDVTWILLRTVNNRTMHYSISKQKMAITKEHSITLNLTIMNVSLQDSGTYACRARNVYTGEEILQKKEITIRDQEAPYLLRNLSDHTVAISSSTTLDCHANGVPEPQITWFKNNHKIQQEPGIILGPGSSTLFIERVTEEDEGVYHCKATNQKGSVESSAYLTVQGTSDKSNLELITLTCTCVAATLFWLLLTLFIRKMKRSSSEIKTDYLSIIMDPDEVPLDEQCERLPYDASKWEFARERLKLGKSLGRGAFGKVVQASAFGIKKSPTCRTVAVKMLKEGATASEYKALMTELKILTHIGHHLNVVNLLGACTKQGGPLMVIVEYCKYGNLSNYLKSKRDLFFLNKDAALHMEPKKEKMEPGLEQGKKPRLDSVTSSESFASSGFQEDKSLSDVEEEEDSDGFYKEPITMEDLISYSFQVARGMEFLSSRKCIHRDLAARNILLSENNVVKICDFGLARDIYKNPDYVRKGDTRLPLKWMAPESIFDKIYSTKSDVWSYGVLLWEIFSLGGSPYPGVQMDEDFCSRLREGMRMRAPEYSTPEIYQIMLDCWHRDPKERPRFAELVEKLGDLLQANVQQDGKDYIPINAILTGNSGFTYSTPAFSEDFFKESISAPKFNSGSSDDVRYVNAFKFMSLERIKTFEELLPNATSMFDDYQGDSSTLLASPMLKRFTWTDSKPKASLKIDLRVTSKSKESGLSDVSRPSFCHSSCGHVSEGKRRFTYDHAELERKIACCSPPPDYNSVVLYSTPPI

Sequence of Cyclin-dependent kinase 1 (P06493 whole entry): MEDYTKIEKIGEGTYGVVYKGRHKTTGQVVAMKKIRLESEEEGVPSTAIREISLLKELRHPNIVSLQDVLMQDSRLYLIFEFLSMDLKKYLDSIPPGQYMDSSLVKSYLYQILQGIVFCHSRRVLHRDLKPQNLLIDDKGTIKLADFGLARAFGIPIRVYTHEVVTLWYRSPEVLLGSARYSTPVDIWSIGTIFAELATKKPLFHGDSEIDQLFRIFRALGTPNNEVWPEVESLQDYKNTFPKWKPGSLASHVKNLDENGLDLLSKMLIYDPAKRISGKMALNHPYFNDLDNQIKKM
Sequence of Insulin-like growth factor 1 receptor (P08069 31-736 limits assumed): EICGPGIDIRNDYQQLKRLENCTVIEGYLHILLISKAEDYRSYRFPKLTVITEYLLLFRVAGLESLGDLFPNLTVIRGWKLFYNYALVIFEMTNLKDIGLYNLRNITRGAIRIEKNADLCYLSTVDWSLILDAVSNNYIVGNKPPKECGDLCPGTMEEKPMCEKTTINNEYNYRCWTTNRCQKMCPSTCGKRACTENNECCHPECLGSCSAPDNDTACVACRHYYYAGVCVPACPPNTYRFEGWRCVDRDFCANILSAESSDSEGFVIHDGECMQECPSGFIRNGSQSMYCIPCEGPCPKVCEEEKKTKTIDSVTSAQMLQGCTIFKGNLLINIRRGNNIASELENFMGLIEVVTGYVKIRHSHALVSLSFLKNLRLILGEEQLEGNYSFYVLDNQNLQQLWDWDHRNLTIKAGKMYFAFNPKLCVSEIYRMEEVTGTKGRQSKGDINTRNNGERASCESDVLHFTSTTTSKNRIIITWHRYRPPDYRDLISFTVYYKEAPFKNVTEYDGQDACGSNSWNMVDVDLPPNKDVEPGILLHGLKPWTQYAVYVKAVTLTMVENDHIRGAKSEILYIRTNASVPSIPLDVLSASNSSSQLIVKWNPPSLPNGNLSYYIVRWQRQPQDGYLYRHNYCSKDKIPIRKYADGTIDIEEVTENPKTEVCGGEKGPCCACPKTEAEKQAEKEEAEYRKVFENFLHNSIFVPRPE
Sequence of Insulin-like growth factor 1 receptor (P08069 741-1367 limits assumed): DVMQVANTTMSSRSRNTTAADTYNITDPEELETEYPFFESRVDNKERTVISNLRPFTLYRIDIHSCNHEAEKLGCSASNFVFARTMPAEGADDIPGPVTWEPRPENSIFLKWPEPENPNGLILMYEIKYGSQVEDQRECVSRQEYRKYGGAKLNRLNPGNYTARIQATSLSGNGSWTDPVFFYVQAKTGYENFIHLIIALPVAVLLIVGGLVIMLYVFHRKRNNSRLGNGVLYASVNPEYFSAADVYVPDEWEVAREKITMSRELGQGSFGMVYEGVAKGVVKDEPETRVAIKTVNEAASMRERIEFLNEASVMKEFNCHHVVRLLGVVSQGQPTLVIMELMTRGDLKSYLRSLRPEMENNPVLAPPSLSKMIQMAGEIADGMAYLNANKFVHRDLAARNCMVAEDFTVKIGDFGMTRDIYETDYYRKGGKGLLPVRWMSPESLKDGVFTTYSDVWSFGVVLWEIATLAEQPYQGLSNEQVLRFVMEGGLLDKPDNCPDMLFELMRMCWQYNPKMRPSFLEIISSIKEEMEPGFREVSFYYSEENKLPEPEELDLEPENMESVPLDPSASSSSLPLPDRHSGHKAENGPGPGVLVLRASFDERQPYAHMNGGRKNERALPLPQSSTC
Sequence of Serine/threonine-protein kinase 3 (Q13188 whole entry): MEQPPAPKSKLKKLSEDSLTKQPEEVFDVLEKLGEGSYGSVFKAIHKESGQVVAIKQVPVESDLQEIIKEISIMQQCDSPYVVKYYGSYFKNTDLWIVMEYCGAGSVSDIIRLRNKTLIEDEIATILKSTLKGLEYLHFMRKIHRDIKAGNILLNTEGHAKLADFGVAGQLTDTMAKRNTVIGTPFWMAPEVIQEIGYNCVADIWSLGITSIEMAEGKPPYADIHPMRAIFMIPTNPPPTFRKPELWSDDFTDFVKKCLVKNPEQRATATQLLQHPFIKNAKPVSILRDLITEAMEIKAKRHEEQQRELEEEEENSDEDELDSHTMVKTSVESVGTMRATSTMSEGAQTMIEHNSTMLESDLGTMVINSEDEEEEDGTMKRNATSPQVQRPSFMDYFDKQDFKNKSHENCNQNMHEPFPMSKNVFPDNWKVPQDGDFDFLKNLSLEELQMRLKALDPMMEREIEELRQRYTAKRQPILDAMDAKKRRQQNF
Sequence of STE20-like serine/threonine-protein kinase (Q9H2G2 whole entry): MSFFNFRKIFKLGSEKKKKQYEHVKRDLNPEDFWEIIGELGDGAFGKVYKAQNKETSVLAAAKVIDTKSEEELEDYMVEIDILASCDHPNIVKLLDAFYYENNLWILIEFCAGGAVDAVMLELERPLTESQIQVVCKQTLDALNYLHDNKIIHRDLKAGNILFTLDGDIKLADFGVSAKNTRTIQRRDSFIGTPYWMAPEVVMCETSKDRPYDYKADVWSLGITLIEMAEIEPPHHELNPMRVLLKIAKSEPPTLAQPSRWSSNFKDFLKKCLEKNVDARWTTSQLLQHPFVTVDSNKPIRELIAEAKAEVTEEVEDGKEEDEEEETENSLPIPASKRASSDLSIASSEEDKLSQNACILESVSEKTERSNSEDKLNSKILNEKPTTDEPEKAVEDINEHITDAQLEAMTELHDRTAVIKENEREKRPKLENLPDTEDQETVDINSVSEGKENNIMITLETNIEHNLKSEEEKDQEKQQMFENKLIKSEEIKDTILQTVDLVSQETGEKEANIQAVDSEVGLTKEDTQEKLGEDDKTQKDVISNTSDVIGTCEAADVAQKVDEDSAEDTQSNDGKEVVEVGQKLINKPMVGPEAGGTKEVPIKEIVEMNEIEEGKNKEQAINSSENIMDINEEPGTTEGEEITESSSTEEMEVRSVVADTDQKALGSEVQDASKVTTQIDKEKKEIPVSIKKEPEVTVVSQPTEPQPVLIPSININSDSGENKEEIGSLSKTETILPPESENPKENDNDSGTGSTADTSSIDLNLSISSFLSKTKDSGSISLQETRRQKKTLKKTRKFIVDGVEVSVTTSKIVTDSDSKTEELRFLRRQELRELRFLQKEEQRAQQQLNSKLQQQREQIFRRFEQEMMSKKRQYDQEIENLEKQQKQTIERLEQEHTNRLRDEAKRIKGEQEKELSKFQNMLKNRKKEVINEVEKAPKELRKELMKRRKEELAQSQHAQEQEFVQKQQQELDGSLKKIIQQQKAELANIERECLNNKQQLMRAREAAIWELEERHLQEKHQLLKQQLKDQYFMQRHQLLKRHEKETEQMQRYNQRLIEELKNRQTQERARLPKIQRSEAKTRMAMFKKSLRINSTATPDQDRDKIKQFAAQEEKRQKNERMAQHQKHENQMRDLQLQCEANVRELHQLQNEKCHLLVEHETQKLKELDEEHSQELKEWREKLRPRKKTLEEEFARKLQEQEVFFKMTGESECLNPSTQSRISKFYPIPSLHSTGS
Sequence of Cyclin-dependent kinase 5 (Q00535 whole entry): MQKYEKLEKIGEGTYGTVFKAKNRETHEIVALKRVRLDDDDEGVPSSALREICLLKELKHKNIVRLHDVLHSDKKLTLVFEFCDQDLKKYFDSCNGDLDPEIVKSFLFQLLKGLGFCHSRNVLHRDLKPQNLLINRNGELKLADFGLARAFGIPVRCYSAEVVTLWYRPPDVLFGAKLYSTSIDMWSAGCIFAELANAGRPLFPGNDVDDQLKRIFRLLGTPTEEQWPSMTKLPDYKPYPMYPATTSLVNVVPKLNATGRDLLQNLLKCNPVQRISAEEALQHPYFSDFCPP

Ki [1]: 63.1 nM (active) | Ki [2]: > 2000 nM (inactive) | Ki [3]: > 6310 nM (inactive) | Ki [4]: 1580 nM (active) | Ki [5]: > 2000 nM (inactive) | Ki (LIM domain kinase 1): 3980 nM (active) | Ki [6]: 100 nM (active) | Ki (Focal adhesion kinase 1): > 1580 nM (inactive) | Ki [7]: > 1580 nM (inactive) | Ki [8]: > 1580 nM (inactive) | Ki [9]: 1580 nM (active) | Ki [10]: 794 nM (active) | Ki [11]: > 7940 nM (inactive) | Ki [12]: 398 nM (active) | Ki [13]: 7.94 nM (active) | Ki [14]: > 1580 nM (inactive) | Ki [15]: > 6310 nM (inactive) | Ki [16]: 794 nM (active) | Ki [17]: 2510 nM (active) | Ki [18]: 100 nM (active) | Ki [19]: 50.1 nM (active) | Ki [20]: > 2000 nM (inactive) | Ki [21]: 2510 nM (active) | Ki [22]: 1580 nM (active) | Ki [23]: > 398 nM (inactive)
Compound: NC(=O)Cn1cc(-c2cc(-c3cc4ccccc4s3)c3[nH]ncc3c2)c2nc(N)ncc21
